Reference: the supplement of paper PMC8671470

Assays:
Assay in all cases: cell viability (% survival relative to DMSO control, bortezomib = 0%); higher = less cytotoxic
Settings in all cases: 72 h
KG-1 = tested on: KG-1
In short: (§1)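 Reported values are percent survival from duplicate wells, averaged. Fifteen myeloid leukaemia cell lines were treated in 384-well plates with compounds at 1, 10, 100, 1000 or 10000 nM for 72 h at 37 °C in 5% CO2. Signals from CellTiter-Glo luminescence were scaled with vehicle as 100% and a 10 µM positive control as 0%.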

HL-60 = tested on: HL-60
In short: as §1

K-562 = tested on: K-562
In short: as §1

MV4-11 = tested on: MV4-11
In short: as §1

| SMILES | cell viability (KG-1; 1 nM) | cell viability (KG-1; 10 nM) | cell viability (KG-1; 100 nM) | cell viability (KG-1; 1000 nM) | cell viability (KG-1; 10000 nM) | cell viability (HL-60; 1 nM) | cell viability (HL-60; 10 nM) | cell viability (HL-60; 100 nM) | cell viability (HL-60; 1000 nM) | cell viability (HL-60; 10000 nM) | cell viability (K-562; 1 nM) | cell viability (K-562; 10 nM) | cell viability (K-562; 100 nM) | cell viability (K-562; 1000 nM) | cell viability (K-562; 10000 nM) | cell viability (MV4-11; 1 nM) | cell viability (MV4-11; 10 nM) | cell viability (MV4-11; 100 nM) | cell viability (MV4-11; 1000 nM) | cell viability (MV4-11; 10000 nM) |
| --- | --- | --- | --- | --- | --- | --- | --- | --- | --- | --- | --- | --- | --- | --- | --- | --- | --- | --- | --- | --- |
| CC(/C=C1\SC(=S)N(CC(=O)O)C1=O)=C\c1ccccc1 [Epalrestat] | 108% | 101% | 116% | 104% | 111% | 120% | 102% | 109% | 112% | 115% | 114% | 102% | 109% | 99.5% | 100% | 95.3% | 85.8% | 103% | 102% | 110% |
| CCOC(=O)[C@@]1(CCCCCCOc2ccc(Cl)cc2)CO1 [Etomoxir] | 94.3% | 99.8% | 112% | 94.5% | 91.1% | 77.7% | 74.7% | 83.3% | 98.5% | 69.5% | 113% | 95.8% | 86.5% | 93.2% | 71.8% | 105% | 97.2% | 99% | 85.3% | 79.3% |
| Cc1c(-c2ccccc2)oc2c(C(=O)OCCN3CCCCC3)cccc2c1=O.Cl [Flavoxate] | 94.7% | 108% | 94.8% | 97% | 106% | 89.2% | 121% | 90.7% | 102% | 103% | 91% | 90% | 89.8% | 98.8% | 83.2% | 87.5% | 83.6% | 97.9% | 94.8% | 98.6% |
| O=C(O)CCc1ccc(NCc2cccc(Oc3ccccc3)c2)cc1 [GW9508] | 90.6% | 101% | 96.8% | 108% | 107% | 90% | 94.3% | 104% | 103% | 83.5% | 109% | 88.8% | 100% | 94.2% | 120% | 98.2% | 98.7% | 103% | 103% | 106% |
| c1ccc2c(c1)OCC(=C1NCCN1)O2 [Idazoxan] | 104% | 112% | 93.6% | 96.4% | 85.9% | 89.1% | 80.3% | 80% | 97.2% | 75.9% | 80% | 98.1% | 90.7% | 100% | 90.9% | 82.3% | 106% | 80.6% | 82.9% | 89.1% |
| C[C@]12O[C@H](C[C@]1(O)CO)n1c3ccccc3c3c4c(c5c6ccccc6n2c5c31)CNC4=O [Lestaurtinib] | 98.3% | 69.3% | 28% | 10.3% | 6.14% | 91.8% | 77.6% | 44.5% | 17.5% | 0.00654% | 94.2% | 94.3% | 64.5% | 13.5% | 2.74% | 73.6% | 7.97% | -0.544% | 0.552% | 0.212% |
| O=C(O)c1nn(Cc2ccc(Cl)cc2Cl)c2ccccc12 [Lonidamine] | 97.8% | 103% | 103% | 84.7% | 71.9% | 100% | 119% | 90.2% | 82.2% | 105% | 94.2% | 104% | 118% | 98.4% | 82.6% | 78.5% | 96.2% | 88.9% | 98.1% | 106% |
| C1CCc2nnc(C34CC5CC(CC(C5)C3)C4)n2CC1 [MERCK-544] | 101% | 106% | 98.5% | 95.2% | 105% | 94.7% | 154% | 103% | 74.8% | 129% | 109% | 117% | 89.3% | 103% | 129% | 97.8% | 100% | 102% | 87.3% | 106% |
| CC(Cc1ccc(O)c(O)c1)C(C)Cc1ccc(O)c(O)c1 (stereo not given) [Masoprocol] | 99% | 109% | 108% | 94.8% | 48.2% | 89% | 81.2% | 118% | 90% | 6.31% | 87.2% | 109% | 105% | 95.8% | 76.7% | 108% | 91.6% | 92.5% | 97.2% | 9.84% |
| CC(C(=O)O)C(=O)O [Methylmalonate] | 92.5% | 90.8% | 91.2% | 88.9% | 88.4% | 84.9% | 104% | 92.2% | 116% | 90.1% | 95.3% | 101% | 106% | 95.2% | 107% | 94.7% | 80.3% | 107% | 97.1% | 102% |
| COc1c(C)c2c(c(O)c1C/C=C(\C)CCC(=O)O)C(=O)OC2 [Mycophenolic acid] | 101% | 104% | 94.5% | 70.6% | 18.5% | 108% | 117% | 80% | 51.3% | 18.4% | 91.3% | 102% | 91.5% | 36.5% | 13.6% | 103% | 94.5% | 90.7% | 26.5% | -0.47% |
| C1CCC(C(CC2CCCCN2)C2CCCCC2)CC1.O=C(O)/C=C\C(=O)O (stereo not given) [Perhexiline] | 91.9% | 85.2% | 100% | 95.6% | 0.46% | 91.2% | 90.1% | 110% | 93% | -0.124% | 98.5% | 97.3% | 110% | 103% | 0.792% | 100% | 101% | 95.3% | 91.8% | 0.781% |
| OCCN1CCN(CCCN2c3ccccc3Sc3ccc(Cl)cc32)CC1 [Perphenazine] | 105% | 93% | 97.4% | 99.7% | 43.4% | 97.8% | 133% | 92% | 103% | 18.8% | 108% | 97.3% | 81.8% | 92% | 0.308% | 102% | 96% | 93.4% | 92.8% | 9.41% |
| C=CCc1ccc2c(c1O)C(=O)c1ccccc1C2=O [R162] | 85.5% | 98% | 107% | 109% | 114% | 98.1% | 104% | 95.6% | 92.5% | 101% | 99.5% | 95.2% | 94% | 118% | 98.5% | 100% | 97.4% | 102% | 130% | 121% |
| O=C(c1ccc(OCCN2CCCCC2)cc1)c1c(-c2ccc(O)cc2)sc2cc(O)ccc12 [Raloxifene] | 102% | 90.6% | 92.1% | 96.5% | 75.1% | 99.3% | 90.6% | 99.8% | 110% | 62.1% | 99.7% | 99.3% | 98.5% | 98.8% | 77.3% | 93.9% | 102% | 85.4% | 93.3% | 58.9% |
| NC(=O)c1ncn([C@@H]2O[C@H](CO)[C@@H](O)[C@H]2O)n1 [Ribavirin] | 98.9% | 110% | 96.8% | 95.2% | 98.1% | 92.6% | 101% | 130% | 110% | 149% | 82.4% | 95.1% | 119% | 107% | 103% | 110% | 92.1% | 89.8% | 137% | 81.8% |
| Nc1ncnc2c1ncn2[C@@H]1O[C@H](CSCC[C@H](N)C(=O)O)[C@@H](O)[C@H]1O [S-Adenosyl Homocysteine] | 110% | 106% | 98.1% | 100% | 102% | 103% | 101% | 115% | 111% | 74.9% | 102% | 104% | 105% | 104% | 98.8% | 110% | 113% | 91.8% | 97% | 86.1% |
| CCCc1nn(C)c2c(O)nc(-c3cc(S(=O)(=O)N4CCN(C)CC4)ccc3OCC)nc12 [Sildenafil] | 95.9% | 97% | 95.7% | 105% | 108% | 99.7% | 88.7% | 100% | 82.9% | 111% | 91.1% | 93% | 94.9% | 110% | 103% | 99.6% | 95.1% | 101% | 98.8% | 119% |
| Cc1coc2c1C(=O)C(=O)c1c-2ccc2c(C)cccc12 [Tanshinone I] | 113% | 99.9% | 98% | 99.3% | 77.6% | 99% | 105% | 117% | 105% | 79.7% | 98.6% | 100% | 106% | 82.7% | 79.8% | 101% | 89.7% | 108% | 103% | 97.2% |
| CN(C/C=C/C#CC(C)(C)C)Cc1cccc2ccccc12 [Terbinafine] | 94.1% | 106% | 90.9% | 95.5% | 92.6% | 104% | 107% | 118% | 105% | 93.8% | 97.8% | 98% | 106% | 86.1% | 88.8% | 93.7% | 92.8% | 102% | 111% | 109% |
